Test results: ChEMBL document CHEMBL4261651, “Probing the ligand preferences of the three types of bacterial pantothenate kinase” (Bioorg Med Chem, 2018)
Activity calls are given as the source filed them. The calls are words filed in the database; no cut-off is given here.

Legend:
[1] = tested on: Escherichia coli; assay: Inhibition of N-terminal His6-tagged Escherichia coli PanK1 expressed in Escherichia coli BL21(DE3) cells at >= 100 uM using pantothenate as substrate in presence of ATP by pyruvate kinase/lactate dehydrogenase enzyme coupled assay
[2] = molecular target: T1, Type III pantothenate kinase (Pseudomonas aeruginosa (strain ATCC 15692 / DSM 22644 / CIP 104116 /JCM 14847 / LMG 12228 / 1C / PRS 101 / PAO1)) (UniProt Q9HWC1); assay: Inhibition of Pseudomonas aeruginosa PanK3 expressed in Escherichia coli BL21 Rosetta(DE3) cells at >= 100 uM using pantothenate as substrate in presence of ATP by pyruvate kinase/lactate dehydrogenase enzyme coupled assay
T1 sequence (whole entry): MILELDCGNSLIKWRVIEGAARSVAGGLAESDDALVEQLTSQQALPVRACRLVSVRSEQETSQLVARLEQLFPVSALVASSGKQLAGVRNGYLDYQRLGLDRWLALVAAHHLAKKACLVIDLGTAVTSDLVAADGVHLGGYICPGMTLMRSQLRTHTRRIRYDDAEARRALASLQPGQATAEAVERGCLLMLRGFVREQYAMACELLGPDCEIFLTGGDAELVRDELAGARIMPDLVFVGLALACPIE

[3] = molecular target: T2, Type II pantothenate kinase (Staphylococcus aureus (strain MSSA476)) (UniProt Q6G7I0); assay: Inhibition of N-terminal His6-tagged Staphylococcus aureus PanK2 expressed in Escherichia coli BL21(DE3) cells at >= 100 uM using pantothenate as substrate in presence of ATP by pyruvate kinase/lactate dehydrogenase enzyme coupled assay
T2 sequence (whole entry): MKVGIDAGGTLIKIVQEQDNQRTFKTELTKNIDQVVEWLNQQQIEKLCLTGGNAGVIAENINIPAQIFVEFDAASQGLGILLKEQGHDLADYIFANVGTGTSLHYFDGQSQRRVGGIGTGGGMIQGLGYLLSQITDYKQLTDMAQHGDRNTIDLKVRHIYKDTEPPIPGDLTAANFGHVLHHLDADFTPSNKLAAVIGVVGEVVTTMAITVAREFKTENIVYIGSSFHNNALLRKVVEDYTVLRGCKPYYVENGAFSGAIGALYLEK

[4] = tested on: Escherichia coli; assay: Substrate activity at N-terminal His6-tagged Escherichia coli PanK1 expressed in Escherichia coli BL21(DE3) cells assessed as Km in presence of ATP/NADH by pyruvate kinase/lactate dehydrogenase enzyme coupled assay
[5] = tested on: Escherichia coli; assay: Substrate activity at N-terminal His6-tagged Escherichia coli PanK1 expressed in Escherichia coli BL21(DE3) cells assessed as Kcat in presence of ATP/NADH by pyruvate kinase/lactate dehydrogenase enzyme coupled assay
[6] = tested on: Escherichia coli; assay: Substrate activity at N-terminal His6-tagged Escherichia coli PanK1 expressed in Escherichia coli BL21(DE3) cells assessed as ratio of Kcat to Km in presence of ATP/NADH by pyruvate kinase/lactate dehydrogenase enzyme coupled assay
[7] = molecular target: T2, Type II pantothenate kinase (Staphylococcus aureus (strain MSSA476)); assay: Substrate activity at N-terminal His6-tagged Staphylococcus aureus PanK2 expressed in Escherichia coli BL21(DE3) cells assessed as ratio of Kcat to Km in presence of ATP/NADH by pyruvate kinase/lactate dehydrogenase enzyme coupled assay
[8] = tested on: Escherichia coli; assay: Growth inhibition of Escherichia coli ATCC 25922 after 16 hrs by broth microdilution method; format: functional, organism-based
[9] = tested on: Enterococcus faecium; assay: Growth inhibition of Enterococcus faecium ATCC 19434 after 16 hrs by broth microdilution method; format: functional, organism-based
[10] = tested on: Pseudomonas aeruginosa; assay: Growth inhibition of Pseudomonas aeruginosa ATCC 27853 after 16 hrs by broth microdilution method; format: functional, organism-based
[11] = molecular target: T1, Type III pantothenate kinase (Pseudomonas aeruginosa (strain ATCC 15692 / DSM 22644 / CIP 104116 /JCM 14847 / LMG 12228 / 1C / PRS 101 / PAO1)); assay: Substrate activity at Pseudomonas aeruginosa PanK3 expressed in Escherichia coli BL21(DE3) cells assessed as ratio of Kcat to Km in presence of ATP/NADH by pyruvate kinase/lactate dehydrogenase enzyme coupled assay
[12] = tested on: Escherichia coli; assay: Inhibition of N-terminal His6-tagged Escherichia coli PanK1 expressed in Escherichia coli BL21(DE3) cells at 200 uM using pantothenate as substrate in presence of ATP by pyruvate kinase/lactate dehydrogenase enzyme coupled assay
[13] = molecular target: T1, Type III pantothenate kinase (Pseudomonas aeruginosa (strain ATCC 15692 / DSM 22644 / CIP 104116 /JCM 14847 / LMG 12228 / 1C / PRS 101 / PAO1)); assay: Inhibition of Pseudomonas aeruginosa PanK3 expressed in Escherichia coli BL21 Rosetta(DE3) cells at 200 uM using pantothenate as substrate in presence of ATP by pyruvate kinase/lactate dehydrogenase enzyme coupled assay
[14] = molecular target: T2, Type II pantothenate kinase (Staphylococcus aureus (strain MSSA476)); assay: Inhibition of N-terminal His6-tagged Staphylococcus aureus PanK2 expressed in Escherichia coli BL21(DE3) cells at 200 uM using pantothenate as substrate in presence of ATP by pyruvate kinase/lactate dehydrogenase enzyme coupled assay
[15] = tested on: Escherichia coli; assay: Substrate activity at N-terminal His6-tagged Escherichia coli PanK1 expressed in Escherichia coli BL21(DE3) cells in presence of ATP/NADH by pyruvate kinase/lactate dehydrogenase enzyme coupled assay
[16] = molecular target: T1, Type III pantothenate kinase (Pseudomonas aeruginosa (strain ATCC 15692 / DSM 22644 / CIP 104116 /JCM 14847 / LMG 12228 / 1C / PRS 101 / PAO1)); assay: Substrate activity at Pseudomonas aeruginosa PanK3 expressed in Escherichia coli BL21(DE3) cells in presence of ATP/NADH by pyruvate kinase/lactate dehydrogenase enzyme coupled assay
[17] = molecular target: T2, Type II pantothenate kinase (Staphylococcus aureus (strain MSSA476)); assay: Substrate activity at N-terminal His6-tagged Staphylococcus aureus PanK2 expressed in Escherichia coli BL21(DE3) cells in presence of ATP/NADH by pyruvate kinase/lactate dehydrogenase enzyme coupled assay

| inhibition [2] | inhibition [3] | Ratio [7] [mM⁻¹ s⁻¹] | Ratio [11] [mM⁻¹ s⁻¹] | inhibition [13] | inhibition [14] | Activity [16] | Activity [17] | SMILES | inhibition [1] | Km [4] [µM] | kcat [5] [s⁻¹] | Ratio [6] [mM⁻¹ s⁻¹] | growth inhibition (GI) [8] | growth inhibition (GI) [9] | growth inhibition (GI) [10] | inhibition [12] | Activity [15] |
| --- | --- | --- | --- | --- | --- | --- | --- | --- | --- | --- | --- | --- | --- | --- | --- | --- | --- |
|  |  | 115 | 20 |  |  |  |  | CC(C)(CO)[C@@H](O)C(=O)NCCC(=O)O |  | 17 | 1.29 | 76 |  |  |  |  |  |
| inactive | inactive | 57 | 1.4 |  |  |  |  | CC(C)(CO)[C@@H](O)C(=O)NCCCC(=O)O | inactive |  |  |  | inactive | inactive | inactive |  |  |
|  |  |  |  | Active |  |  |  | CNCC(C)(C)[C@@H](O)C(=O)NCCC(=O)O |  |  |  |  | inactive | inactive | inactive | Active |  |
| inactive | inactive |  |  |  |  |  |  | CO[C@@H](C(=O)NCCC(=O)O)C(C)(C)CO | inactive | 16 | 0.49 | 31 | inactive | inactive | inactive |  |  |
|  |  |  |  | Active | Active |  |  | CC(=O)CC(=O)NCC(C)(C)[C@@H](O)C(=O)NCCC(=O)O |  |  |  |  | inactive | inactive | inactive | Active |  |
|  |  |  |  | Active |  |  |  | COCC(C)(C)[C@@H](O)C(=O)NCCC(=O)O |  |  |  |  | inactive | inactive | inactive | Active |  |
| inactive | inactive |  |  |  |  |  |  | CC(C)(CO)[C@@H](O)C(=O)NCC(=O)O | inactive | 62 | 1.59 | 26 | inactive | inactive | inactive |  |  |
| inactive | inactive | 8.3 |  |  |  |  |  | COC(=O)CCNC(=O)[C@H](O)C(C)(C)CO | inactive | 292 | 0.8 | 2.7 | inactive | inactive | inactive |  |  |
| inactive | inactive |  |  |  |  | inactive | inactive | CC(C)(CNCCCO)[C@@H](O)C(=O)NCCC(=O)O | inactive |  |  |  | inactive | inactive | inactive |  | inactive |
|  |  |  |  |  | Active |  |  | CC(C)(C(=O)O)[C@@H](O)C(=O)NCCC(=O)O |  |  |  |  | inactive | inactive | inactive |  |  |

The next lines start with the compound.

| SMILES | inhibition [2] | inhibition [3] | Ratio [7] [mM⁻¹ s⁻¹] | Ratio [11] [mM⁻¹ s⁻¹] | inhibition [13] | inhibition [14] | Activity [16] | Activity [17] | inhibition [1] | Km [4] [µM] | kcat [5] [s⁻¹] | Ratio [6] [mM⁻¹ s⁻¹] | growth inhibition (GI) [8] | growth inhibition (GI) [9] | growth inhibition (GI) [10] | inhibition [12] | Activity [15] |
| --- | --- | --- | --- | --- | --- | --- | --- | --- | --- | --- | --- | --- | --- | --- | --- | --- | --- |
| CCCCn1cc(CCNC(=O)[C@H](O)C(C)(C)CO)nn1 | inactive | inactive | 115 |  |  |  |  |  | inactive | 50 | 1.08 | 22 | inactive | inactive | inactive |  |  |
| CC(=O)CC(=O)OCC(C)(C)[C@@H](O)C(=O)NCCC(=O)O |  |  |  |  |  |  |  |  |  |  |  |  | inactive | inactive | inactive |  |  |
| CCCCCc1cn(CCNC(=O)[C@H](O)C(C)(C)CO)nn1 | inactive | inactive | 97 |  |  |  |  |  | inactive | 21 | 1.11 | 53 | inactive | inactive | inactive |  |  |
| CC(C)(CO)[C@@H](O)C(=O)NCc1cn(CCc2ccccc2)nn1 | inactive | inactive | 37 |  |  |  |  |  | inactive | 25 | 1.09 | 44 | inactive | inactive | inactive |  |  |
| CCCNCC(C)(C)[C@@H](O)C(=O)NCCC(=O)O |  |  |  |  |  |  |  |  |  |  |  |  | inactive | inactive | inactive |  |  |
| COC(=O)CCCNC(=O)[C@H](O)C(C)(C)CO | inactive | inactive | 7.1 |  |  |  |  |  | inactive |  |  |  | inactive | inactive | inactive |  |  |
| CC(C)(CNCCc1ccccc1)[C@@H](O)C(=O)NCCC(=O)O |  |  |  |  |  |  |  |  |  |  |  |  | inactive | inactive | inactive | Active |  |
| CCCCCCCNCC(C)(C)[C@@H](O)C(=O)NCCC(=O)O |  |  |  |  |  |  |  |  |  |  |  |  | inactive | inactive | inactive |  |  |
| COC(=O)CNC(=O)[C@H](O)C(C)(C)CO | inactive | inactive | 115 |  |  |  |  |  | inactive | 156 | 0.91 | 5.8 | inactive | inactive | inactive |  |  |
| CCCc1cn(CCCNC(=O)[C@H](O)C(C)(C)CO)nn1 | inactive | inactive | 21 |  |  |  |  |  | inactive |  |  |  | inactive | inactive | inactive |  |  |
| CCCCCn1cc(CNC(=O)[C@H](O)C(C)(C)CO)nn1 | inactive | inactive | 54 |  |  |  |  |  | inactive |  |  |  | inactive | inactive | inactive |  |  |
| COCC(C)(C)[C@@H](OC)C(=O)NCCC(=O)O |  |  |  |  |  |  |  |  |  |  |  |  | inactive | inactive | inactive |  |  |
| O=C(O)CCNC(=O)[C@H](O)CCO | inactive | inactive |  | 5 |  |  |  |  | inactive |  |  |  | inactive | inactive | inactive |  |  |
| CCCCCNCC(C)(C)[C@@H](O)C(=O)NCCC(=O)O |  |  |  |  |  |  |  |  |  |  |  |  | inactive | inactive | inactive | Active |  |
| CCCCCNC(=O)CCNC(=O)[C@H](O)C(C)(C)CO |  |  | > 290 |  |  |  |  |  |  |  |  |  |  |  |  |  |  |
| CCCCCn1cc(CCNC(=O)[C@H](O)C(C)(C)CO)nn1 | inactive | inactive | 107 |  |  |  |  |  | inactive | 33 | 0.72 | 22 | inactive | inactive | inactive |  |  |
